According to the NIST ThermoML archive (doi:10.1021/je700260f):
± gives the expanded uncertainty stated by the source.

Settings: Liquid, Vibrating tube method

FC(C(F)(F)F)C(F)(F)F [1,1,1,2,3,3,3-heptafluoropropane]
Settings | mass density [kg/m3]
323.14 K, 26341 kPa | 1449.9 ± 1.6
323.14 K, 26367 kPa | 1450.1 ± 1.6
323.14 K, 26395 kPa | 1450.2 ± 1.6
323.14 K, 26427 kPa | 1450.3 ± 1.6
323.14 K, 26451 kPa | 1450.5 ± 1.6
323.14 K, 26475 kPa | 1450.5 ± 1.6
323.14 K, 26513 kPa | 1450.7 ± 1.6
323.14 K, 26548 kPa | 1450.8 ± 1.6
323.14 K, 26575 kPa | 1450.8 ± 1.6
323.14 K, 26605 kPa | 1451 ± 1.6
323.14 K, 26630 kPa | 1451.2 ± 1.6
323.14 K, 26654 kPa | 1451.3 ± 1.6
323.14 K, 26689 kPa | 1451.4 ± 1.6
323.14 K, 26725 kPa | 1451.6 ± 1.6
323.14 K, 26749 kPa | 1451.6 ± 1.6
323.14 K, 26779 kPa | 1451.8 ± 1.6
323.14 K, 26810 kPa | 1451.9 ± 1.6
323.14 K, 26834 kPa | 1451.9 ± 1.6
323.14 K, 26866 kPa | 1452.2 ± 1.6
323.14 K, 26907 kPa | 1452.2 ± 1.6
323.14 K, 26931 kPa | 1452.3 ± 1.6
323.14 K, 26964 kPa | 1452.5 ± 1.6
323.14 K, 26991 kPa | 1452.7 ± 1.6
323.14 K, 27019 kPa | 1452.7 ± 1.6
323.14 K, 27049 kPa | 1452.9 ± 1.6
323.14 K, 27086 kPa | 1452.9 ± 1.6
323.14 K, 27111 kPa | 1453.1 ± 1.6
323.14 K, 27141 kPa | 1453.2 ± 1.6
323.14 K, 27170 kPa | 1453.4 ± 1.6
323.14 K, 27208 kPa | 1453.4 ± 1.6
323.14 K, 27239 kPa | 1453.6 ± 1.6
323.14 K, 27261 kPa | 1453.7 ± 1.6
323.14 K, 27301 kPa | 1453.9 ± 1.6
323.14 K, 27337 kPa | 1453.9 ± 1.6
323.14 K, 27364 kPa | 1454.2 ± 1.6
323.14 K, 27407 kPa | 1454.4 ± 1.7
323.14 K, 27446 kPa | 1454.5 ± 1.7
323.14 K, 29221 kPa | 1461.5 ± 1.7
323.14 K, 29254 kPa | 1461.6 ± 1.7
323.14 K, 29283 kPa | 1461.7 ± 1.7
323.14 K, 29320 kPa | 1461.9 ± 1.7
323.14 K, 29357 kPa | 1462 ± 1.7
323.14 K, 29386 kPa | 1462.2 ± 1.7
323.14 K, 29420 kPa | 1462.2 ± 1.7
323.14 K, 29450 kPa | 1462.4 ± 1.7
323.14 K, 29481 kPa | 1462.5 ± 1.7
323.14 K, 29512 kPa | 1462.7 ± 1.7
323.14 K, 29551 kPa | 1462.8 ± 1.7
323.14 K, 29581 kPa | 1462.9 ± 1.7
323.14 K, 29617 kPa | 1463.1 ± 1.7
323.14 K, 29647 kPa | 1463.3 ± 1.7
323.14 K, 29673 kPa | 1463.3 ± 1.7
323.14 K, 29712 kPa | 1463.4 ± 1.7
323.14 K, 30912 kPa | 1468 ± 1.7
323.14 K, 30939 kPa | 1468.2 ± 1.7
323.14 K, 30970 kPa | 1468.1 ± 1.7
323.14 K, 31016 kPa | 1468.3 ± 1.7
323.14 K, 31057 kPa | 1468.4 ± 1.7
323.14 K, 31085 kPa | 1468.6 ± 1.7
323.14 K, 31126 kPa | 1468.7 ± 1.7
323.14 K, 31158 kPa | 1468.9 ± 1.7
323.14 K, 31190 kPa | 1468.9 ± 1.7
323.14 K, 31227 kPa | 1469.2 ± 1.7
323.14 K, 31260 kPa | 1469.2 ± 1.7
323.14 K, 31289 kPa | 1469.4 ± 1.7
323.14 K, 31322 kPa | 1469.5 ± 1.7
323.14 K, 31350 kPa | 1469.7 ± 1.7
323.14 K, 31393 kPa | 1469.8 ± 1.7
323.14 K, 31427 kPa | 1469.8 ± 1.7
323.14 K, 31456 kPa | 1469.9 ± 1.7
323.14 K, 31496 kPa | 1470.1 ± 1.7
323.14 K, 31525 kPa | 1470.2 ± 1.7
323.14 K, 31560 kPa | 1470.3 ± 1.7
323.14 K, 31593 kPa | 1470.5 ± 1.7
323.14 K, 31631 kPa | 1470.6 ± 1.7
323.14 K, 31664 kPa | 1470.7 ± 1.7
323.14 K, 31692 kPa | 1470.8 ± 1.7
323.14 K, 31727 kPa | 1470.8 ± 1.7
323.14 K, 31759 kPa | 1471.1 ± 1.7
323.14 K, 31798 kPa | 1471.2 ± 1.7
323.14 K, 31833 kPa | 1471.3 ± 1.7
323.14 K, 31867 kPa | 1471.5 ± 1.7
323.14 K, 31900 kPa | 1471.6 ± 1.7
323.14 K, 31935 kPa | 1471.8 ± 1.7
323.14 K, 31970 kPa | 1471.9 ± 1.7
323.14 K, 32005 kPa | 1472.1 ± 1.7
323.14 K, 32035 kPa | 1472.1 ± 1.7
323.14 K, 32074 kPa | 1472.2 ± 1.7
323.14 K, 32106 kPa | 1472.4 ± 1.7
323.14 K, 32145 kPa | 1472.5 ± 1.7
323.14 K, 32183 kPa | 1472.7 ± 1.7
323.14 K, 32213 kPa | 1472.9 ± 1.7
323.14 K, 32256 kPa | 1472.9 ± 1.7
323.14 K, 32290 kPa | 1473 ± 1.7
323.14 K, 32334 kPa | 1473.2 ± 1.7
323.14 K, 32359 kPa | 1473.2 ± 1.7
323.14 K, 32392 kPa | 1473.5 ± 1.7
323.14 K, 32426 kPa | 1473.5 ± 1.7
323.14 K, 32453 kPa | 1473.6 ± 1.7
323.14 K, 32494 kPa | 1473.7 ± 1.7
323.14 K, 32530 kPa | 1473.9 ± 1.7
323.14 K, 32562 kPa | 1474.1 ± 1.7
323.14 K, 32595 kPa | 1474.2 ± 1.7
323.14 K, 32625 kPa | 1474.2 ± 1.7
323.14 K, 32718 kPa | 1474.5 ± 1.7
323.14 K, 32751 kPa | 1474.7 ± 1.7
323.14 K, 32788 kPa | 1474.8 ± 1.7
323.14 K, 32825 kPa | 1475.1 ± 1.7
323.14 K, 32856 kPa | 1475.1 ± 1.7
323.14 K, 32888 kPa | 1475.2 ± 1.7
323.14 K, 32921 kPa | 1475.3 ± 1.7
323.14 K, 32953 kPa | 1475.5 ± 1.7
323.14 K, 32985 kPa | 1475.4 ± 1.7
323.14 K, 33019 kPa | 1475.7 ± 1.7
323.14 K, 33051 kPa | 1475.7 ± 1.7
323.14 K, 33084 kPa | 1475.8 ± 1.7
323.14 K, 33112 kPa | 1476.1 ± 1.7
323.14 K, 33140 kPa | 1476.1 ± 1.7
323.14 K, 33174 kPa | 1476.3 ± 1.7
323.14 K, 33204 kPa | 1476.4 ± 1.7
323.14 K, 33237 kPa | 1476.4 ± 1.7
323.14 K, 33283 kPa | 1476.6 ± 1.7
323.14 K, 33320 kPa | 1476.7 ± 1.7
323.14 K, 33348 kPa | 1476.8 ± 1.7
323.14 K, 33380 kPa | 1477 ± 1.7
323.14 K, 33409 kPa | 1477.2 ± 1.7
323.14 K, 33451 kPa | 1477.2 ± 1.7
323.14 K, 33480 kPa | 1477.5 ± 1.7
323.14 K, 33527 kPa | 1477.5 ± 1.7
323.14 K, 33556 kPa | 1477.6 ± 1.7
323.14 K, 33594 kPa | 1477.8 ± 1.7
323.14 K, 33624 kPa | 1477.9 ± 1.7
323.14 K, 33659 kPa | 1477.9 ± 1.7
323.14 K, 33689 kPa | 1477.9 ± 1.7
323.14 K, 33733 kPa | 1478.3 ± 1.7
323.14 K, 33772 kPa | 1478.3 ± 1.7
323.14 K, 33801 kPa | 1478.4 ± 1.7
323.14 K, 33844 kPa | 1478.5 ± 1.7
323.14 K, 33873 kPa | 1478.6 ± 1.7
323.14 K, 33912 kPa | 1478.8 ± 1.7
323.14 K, 33947 kPa | 1479 ± 1.7
323.14 K, 33988 kPa | 1479.1 ± 1.7
323.14 K, 34019 kPa | 1479.2 ± 1.7
323.14 K, 34056 kPa | 1479.3 ± 1.7
323.14 K, 34088 kPa | 1479.4 ± 1.7
323.14 K, 34126 kPa | 1479.7 ± 1.7
323.14 K, 34164 kPa | 1479.7 ± 1.7
323.14 K, 34203 kPa | 1479.9 ± 1.7
323.14 K, 34254 kPa | 1480 ± 1.7
323.14 K, 34287 kPa | 1480.1 ± 1.7
323.14 K, 34318 kPa | 1480.4 ± 1.7
323.14 K, 34333 kPa | 1480.4 ± 1.7
323.14 K, 34347 kPa | 1480.4 ± 1.7
323.14 K, 34355 kPa | 1480.4 ± 1.7
323.14 K, 34365 kPa | 1480.4 ± 1.7
323.14 K, 34376 kPa | 1480.5 ± 1.7
323.14 K, 34382 kPa | 1480.5 ± 1.7
323.15 K, 2690 kPa | 1295.1 ± 1.5
323.15 K, 2710 kPa | 1295.4 ± 1.5
323.15 K, 2730 kPa | 1295.6 ± 1.5
323.15 K, 2750 kPa | 1295.9 ± 1.5
323.15 K, 2770 kPa | 1296.1 ± 1.5
323.15 K, 2790 kPa | 1296.3 ± 1.5
323.15 K, 2810 kPa | 1296.6 ± 1.5
323.15 K, 2860 kPa | 1297.2 ± 1.5
323.15 K, 3610 kPa | 1305.8 ± 1.5
323.15 K, 5700 kPa | 1326.8 ± 1.5
323.15 K, 5730 kPa | 1327.1 ± 1.5
323.15 K, 5750 kPa | 1327.2 ± 1.5
323.15 K, 5780 kPa | 1327.6 ± 1.5
323.15 K, 5810 kPa | 1327.8 ± 1.5
323.15 K, 5830 kPa | 1328.1 ± 1.5
323.15 K, 5860 kPa | 1328.3 ± 1.5
323.15 K, 5890 kPa | 1328.7 ± 1.5
323.15 K, 5920 kPa | 1329.1 ± 1.5
323.15 K, 5940 kPa | 1329 ± 1.5
323.15 K, 7941 kPa | 1346.2 ± 1.5
323.15 K, 7982 kPa | 1346.7 ± 1.5
323.15 K, 8005 kPa | 1346.8 ± 1.5
323.15 K, 8337 kPa | 1349.4 ± 1.5
323.15 K, 8351 kPa | 1349.6 ± 1.5
323.15 K, 8369 kPa | 1349.8 ± 1.5
323.15 K, 8474 kPa | 1350.5 ± 1.5
323.15 K, 8495 kPa | 1350.7 ± 1.5
323.15 K, 8516 kPa | 1350.8 ± 1.5
323.15 K, 8532 kPa | 1351 ± 1.5
323.15 K, 8553 kPa | 1351.1 ± 1.5
323.15 K, 8569 kPa | 1351.3 ± 1.5
323.15 K, 8597 kPa | 1351.5 ± 1.5
323.15 K, 8616 kPa | 1351.8 ± 1.5
323.15 K, 8637 kPa | 1351.8 ± 1.5
323.15 K, 8653 kPa | 1351.9 ± 1.5
323.15 K, 8674 kPa | 1352.2 ± 1.5
323.15 K, 8690 kPa | 1352.3 ± 1.5
323.15 K, 8713 kPa | 1352.5 ± 1.5
323.15 K, 8731 kPa | 1352.6 ± 1.5
323.15 K, 8753 kPa | 1352.6 ± 1.5
323.15 K, 8776 kPa | 1352.9 ± 1.5
323.15 K, 8792 kPa | 1353.1 ± 1.5
323.15 K, 8817 kPa | 1353.1 ± 1.5
323.15 K, 8836 kPa | 1353.4 ± 1.5
323.15 K, 8858 kPa | 1353.5 ± 1.5
323.15 K, 8877 kPa | 1353.6 ± 1.5
323.15 K, 8898 kPa | 1353.8 ± 1.5
323.15 K, 9724 kPa | 1360 ± 1.5
